The values below come from article PMC11486602 (The New phytologist, 2024).

Experiment [1] concerns the target PROTODERMAL FACTOR2 (PDF2), pdf2(START)^L467P (Arabidopsis thaliana, UniProt Q93V99, L467P). The experiment in a line: microscale thermophoresis with […] DOPC/LysoPC […] liposomes. The experiment is classed as binding. Background: MST reads how a fluorescent partner responds to local heating, with and without ligand.
In experiment [2] the target is T1, PROTODERMAL FACTOR2 (PDF2) (Arabidopsis thaliana, UniProt Q93V99).
T1 sequence (Q93V99 244-476 limits assumed): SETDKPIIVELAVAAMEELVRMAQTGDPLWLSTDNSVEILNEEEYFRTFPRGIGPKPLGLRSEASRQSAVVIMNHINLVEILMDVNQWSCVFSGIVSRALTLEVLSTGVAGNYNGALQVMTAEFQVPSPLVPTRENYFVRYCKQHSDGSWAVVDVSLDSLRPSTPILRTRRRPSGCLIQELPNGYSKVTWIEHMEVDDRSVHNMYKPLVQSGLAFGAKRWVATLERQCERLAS
Described as above. The format is binding.

By Kd is commonly meant the free concentration of one partner at which half of the binding sites on the other are occupied at equilibrium, for simple one-to-one binding. A lower Kd goes with a tighter complex.

PROTODERMAL FACTOR2 (PDF2), pdf2(START)^L467P, sequence (Q93V99 244-476 L467P): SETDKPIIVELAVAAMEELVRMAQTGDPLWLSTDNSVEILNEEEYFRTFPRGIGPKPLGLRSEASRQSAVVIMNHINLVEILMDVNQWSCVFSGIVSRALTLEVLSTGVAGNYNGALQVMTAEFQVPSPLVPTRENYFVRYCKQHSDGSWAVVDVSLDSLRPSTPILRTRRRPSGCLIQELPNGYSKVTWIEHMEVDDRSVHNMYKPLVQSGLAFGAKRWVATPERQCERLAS

Consider LysoPC 18:1, for which the equilibrium dissociation constant (Kd) is 200 µM in experiment [1] and 17 µM in experiment [2].
